Data as given in PMC11547576, “Identification of a New Promising BAG3 Modulator Featuring the Imidazopyridine Scaffold” (Molecules, 2024).

Experiments:
caspase 3 = assay: Western blot of caspase 3 expression and cleavage; format: cell-based, human; settings: HeLa cells, 72 h, 50, 30 and 20 µM
Procedure: Furthermore, we investigated the expressions of caspases, key mediators of programmed cell death, in HeLa cells treated with compound 10 at the same concentrations used in the previous assays. […] To further confirm the pro-apoptotic mechanism induced by compound 10, Western blotting was performed to measure the expression and cleavage of caspase 3 [38, 39].
The HeLa cell line was seeded in 60 mm culture dishes (20 × 104) and treated with compound 10 (50, 30, 20 μM) for 72 h. After treatments, the cells were washed twice, detached with a scraper, and centrifuged for 10 min (400× g, 4 °C) to remove debris. Total proteins were extracted by lysis buffer (20 mM Tris-HCl pH 7.5, 150 mM NaCl, 1 mM Na2EDTA, 1 mM EGTA, 2% NP-40, 1% sodium deoxycholate, 1× protease, and phosphatase inhibitor cocktail) for 30 min. […] Protein concentration was determined by the Bradford assay using bovine serum albumin as standard. […]
After washes in PBS/Tween-20 0.1% the appropriate anti-rabbit or anti-mouse (1:5000, Pierce, Thermo Fisher Scientific) peroxidase-linked secondary antibody was added for 1 h at room temperature. Antigen–antibody complexes were detected through enhanced chemiluminescence using LAS 4000 (GE Healthcare, Chicago, IL, USA) and a densitometry analysis of the autoradiographs was performed by using the ImageJ program, version 1.47 [38, 39]. […]

HeLa cells = assay: MTT cell viability assay on HeLa cells; format: cell-based; settings: Homo sapiens, 72 h
Procedure: Elevated expression levels of BAG3 are strongly associated with signaling pathways in various types of malignant cells; consequently, reducing the activity of this co-chaperone inhibits cell proliferation, triggers apoptosis, and induces cell cycle arrest. To assess the activity of compounds 10, 12, and 14, cytotoxicity assays were performed on HeLa cells, which were chosen for their tendency to overexpress BAG3 proteins. MTT assays were conducted by exposing HeLa cells to different concentrations of the compounds (25, 50, and 100 µM) for 72 h. Additionally, 10% DMSO was used as a positive control, while 0.1% DMSO served as a negative control. […] The next step involved the assessment of the cytotoxicity of the most promising candidate, 10, on healthy cells to determine its safety profile. To achieve this, MTT assays were conducted on HaCat cells over 72 h.
Human cervical carcinoma cell lines (HeLa, kindly donated by Prof. Ornella Moltedo, Department of Pharmacy, University of Salerno) and immortalized human keratinocytes (HaCaT) were cultured in a DMEM/high glucose medium. This medium was supplemented with 10% FBS (v/v), 2 mM/L glutamine, 100 U/mL penicillin, and […] streptomycin. The cells were maintained at 37 °C in a humidified atmosphere with 5% CO2. To ensure logarithmic growth, the cells were sub-cultured every 2 days.
Cell viability was assessed by measuring mitochondrial metabolic activity using a colorimetric assay, which involves the reduction of 3-[4,5-dimethylthiazol-2,5-diphenyl-2H-tetrazolium bromide (MTT) to purple formazan. Stock solutions of compounds 10, 12, and 14 (50 mM in DMSO) were stored at −20 °C in the dark and diluted just before being added to the sterile culture medium. Briefly, HeLa cells (3.5 × 10^3 cells/well) were seeded in triplicate in 96-well plates, and after 24 h, to allow for attachment, the cells were treated with various concentrations of the tested compounds (25, 50 and 100 μM), 0.1% (v/v) DMSO as a negative control, and 10% (v/v) DMSO as a positive control for 72 h. Following treatment, 20 μL of MTT (5 mg/mL in PBS) was added to each well, and the cells were incubated for an additional 3 h at 37 °C. The formazan crystals formed were then dissolved in 100 μL of a buffer containing 50% (v/v) N, N-dimethylformamide and 20% SDS (pH 4.5). Absorbance was measured at 570 nm using a Multiskan™ GO Microplate Spectrophotometer (Thermo Fisher Scientific, Waltham, MA, USA,). […] The IC50 values, representing the concentration causing 50% inhibition of cell survival, were calculated and compared to control cells treated with DMSO using GraphPad Prism 8.0 software through nonlinear regression of dose–response inhibition. Only for compound 10 was the IC50 also assessed on HaCaT cells (5.0 × 10^3 cells/well) after 72 h of treatment.

HaCat cells = assay: MTT cell viability assay on HaCat healthy cells; format: cell-based; settings: Homo sapiens, 72 h, seven concentrations (1 to 100 μM)
Procedure: Elevated expression levels of BAG3 are strongly associated with signaling pathways in various types of malignant cells; consequently, reducing the activity of this co-chaperone inhibits cell proliferation, triggers apoptosis, and induces cell cycle arrest. To assess the activity of compounds 10, 12, and 14, cytotoxicity assays were performed on HeLa cells, which were chosen for their tendency to overexpress BAG3 proteins. MTT assays were conducted by exposing HeLa cells to different concentrations of the compounds (25, 50, and 100 µM) for 72 h. Additionally, 10% DMSO was used as a positive control, while 0.1% DMSO served as a negative control. […] The next step involved the assessment of the cytotoxicity of the most promising candidate, 10, on healthy cells to determine its safety profile. To achieve this, MTT assays were conducted on HaCat cells over 72 h. […]
Cell viability was assessed by measuring mitochondrial metabolic activity using a colorimetric assay, which involves the reduction of 3-[4,5-dimethylthiazol-2,5-diphenyl-2H-tetrazolium bromide (MTT) to purple formazan. […] Absorbance was measured at 570 nm using a Multiskan™ GO Microplate Spectrophotometer (Thermo Fisher Scientific, Waltham, MA, USA,). […]

Question: What does the source list for CC(C)Nc1c(-c2ccccc2Br)nc2ccc(Cl)cn12 [Compound 10, 2-(2-bromophenyl)-6-chloro-N-isopropylimidazo[1,2-a]pyridin-3-amine]?
Answer: expression of procaspase 3 (caspase 3): increased expression of procaspase 3; levels of cleaved caspase 3 (caspase 3): elevated levels of cleaved caspase 3 in a dose-dependent manner; mortality at 25 µM (HeLa cells; 25 µM): 50%; mortality at 100 µM (HeLa cells; 100 µM): > 90%; IC50 (HeLa cells; seven concentrations (1 to 100 µM)): 25.1 ± 2.67 µM; IC50 (HaCat cells): 81.3 ± 4.83 µM
